Like-named read-outs stand apart in the source and are kept apart here.
Legend:
L1210 = assay: Test (b): inhibition of the growth of the leukaemia cell line L1210 in cell culture; format: cell-based; conditions: Mus musculus, read-out: IC50 against the L1210 cell line [Test (b)]
Text: (b) An assay which determines the ability of a test compound to inhibit the growth of the leukaemia cell line L1210 in cell culture. The test is similar to that described in UK Patent Specification No. 2065653B;

thymidylate synthase = target: T1, thymidylate synthase (Mus musculus, UniProt P07607); assay: Test (a): in vitro inhibition of the enzyme thymidylate synthase (partially purified from L1210 mouse leukaemia cells); format: biochemical
T1 construct: obtained in partially purified form from L1210 mouse leukaemia cells; endogenous in cells; host or cells: L1210 mouse leukaemia cells (enzyme partially purified)
T1 sequence (P07607 whole entry): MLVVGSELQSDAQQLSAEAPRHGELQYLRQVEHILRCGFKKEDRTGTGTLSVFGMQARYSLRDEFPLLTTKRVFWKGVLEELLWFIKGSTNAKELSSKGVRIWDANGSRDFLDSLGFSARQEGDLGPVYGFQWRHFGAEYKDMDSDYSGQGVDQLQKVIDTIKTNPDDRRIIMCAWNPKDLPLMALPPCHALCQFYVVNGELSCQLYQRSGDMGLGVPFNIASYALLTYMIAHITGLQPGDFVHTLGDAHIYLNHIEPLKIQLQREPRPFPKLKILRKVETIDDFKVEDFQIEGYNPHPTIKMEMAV
Text: (a) An in vitro assay which determines the ability of a test compound to inhibit the enzyme thymidylate synthase.

[1] = particularly in relation to the liver and kidney; cited from earlier work
[2] = tested on: human breast, ovarian and liver cancer; conditions: clinical trials; cited from earlier work

Row | SMILES | IC50 (L1210) | IC50 (thymidylate synthase) | IC50 (thymidylate synthase; enzyme from L1210 mouse leukaemia cells, read-out: IC50 against thymidylate synthase [Test (a)]) | symptoms of toxicity in humans [1] | activity against human breast, ovarian and liver cancer [2]
1 | C#CCN(Cc1ccc2nc(C)[nH]c(=O)c2c1)c1ccc(C(=O)NCc2ccccc2[N+](=O)[O-])cc1 [p-[N-(3,4-dihydro-2-methyl-4-oxoquinazolin-6-ylmethyl)-N-(prop-2-ynyl)amino]-N-(2-nitrobenzyl)benzamide] | 1800 nM | 50 nM | – | – | –
2 | C#CCN(Cc1ccc2nc(C)nc(O)c2c1)c1ccc(C(=O)NCc2ccccn2)cc1 [p-[N-(3,4-dihydro-2-methyl-4-oxoquinazolin-6-ylmethyl)-N-(prop-2-ynyl)amino]-N-(2-pyridylmethyl)benzamide] | 3900 nM | – | 500 nM | – | –
3 | C#CCN(Cc1ccc2nc(N)[nH]c(=O)c2c1)c1ccc(C(=O)N[C@@H](CCC(=O)O)C(=O)O)cc1 [CB3717] | – | – | – | shows symptoms of toxicity in humans, particularly in relation to the liver and kidney | promising activity against human breast, ovarian and liver cancer

From US5395838A, “6-substituted quinazolines processing anti-tumor activity” (Imperial Chemical Industries PLC, priority 1988, dated 1995)
